According to patent US7314959B2, “Amino thiol compounds and compositions for use in conjunction with cancer therapy” (Wisconsin Alumni Research Foundation, priority 2003, dated 2008):
Entries after “also recorded” stand apart in the source; their conditions may differ.

Experiments:
[1] = test system: radiation-induced dermatitis on backs of rats; test: Radiation-induced dermatitis in rat skin model; type: in vivo
[2] = test system: B16 melanoma tumor xenografts; test: Effect of topical drug on killing of tumor xenograft by systemic Cytoxan; type: in vivo, mouse; settings: topical dose 5-times higher than standard regimen; Cytoxan 200 ug/gm b.w. ip
[3] = test system: primary, human skin fibroblasts; test: Cell cycle block in human skin fibroblasts (flow cytometry); type: cell-based
Procedure: Methods (Cell cycle and p21 western): The cell culture experiments were done using primary, human skin fibroblasts, one strain of which (BJ cells) was obtained from ATCC (American Type Culture Collection). […] For flow cytometry and p21 experiments, cells were plated at 0.5×10^6 cells/150 mm plate, and 24 hr later, drug molecules (4100 μM PrC-210, 600 μM cysteamine, 205 μM cysteamine analog, 0.4 μg/ml colcemid) were added to medium. […] (Cancer Research. 61(21):7754-62, 2001). As per the cited reference, cells were fixed, treated with RNAse, and stained with propidium iodide for flow cytometry, or cells were extracted, proteins electrophoresed, and probed with anti-p21 antibody (#SXM-30) for western blot analysis.

## CNCC(CS)CNC [PrC-210, 3-methylamino-2-methylaminomethyl-propane-1-thiol]
[1]; 0:95:5 versus 50:30:20 ethanol:PG:water
  dose for complete protection in 0:95:5 vehicle relative to 50:30:20 vehicle: about 10 times
[1]; 370 mM, vehicle 0:95:5, Experiment 440-443
  Dermatitis Score (% of irradiated field free of scab material): <50%
[1]; 370 mM, vehicle 50:30:20, Experiment 574-577
  Dermatitis Score (% of irradiated field free of scab material): 100 ± 0%
[1]; 370 mM, vehicle 50:30:20, Experiment 643-646
  Dermatitis Score (% of irradiated field free of scab material): 98 ± 3%
[1]; 740 mM, vehicle 0:95:5 ethanol:prop. glycol:water, Experiment 440-443
  Dermatitis Score (% of irradiated field free of scab material): 68%
[1]; 740 mM, vehicle 50:30:20, Experiment 626-629
  Dermatitis Score (% of irradiated field free of scab material): 96 ± 3%
[1]; 740 mM, vehicle 50:30:20, Experiment 643-646
  Dermatitis Score (% of irradiated field free of scab material): 96 ± 4%
[1]; 900 mM PrC-210, vehicle 0:95:5, cage 440, 8.7 Gy
  Dermatitis Score (% of irradiated field free of scab material): 68 ± 10%
[1]; 1200 mM PrC-210, vehicle 0:95:5, cage 441
  Dermatitis Score (% of irradiated field free of scab material): 95 ± 5%
[1]; 95:5 PG:water vehicle
  concentration conferring complete protection against radiation-induced dermatitis: 1200 to 1500 mM
[1]; aminothiol alone, without epinephrine, 8.7 Gy
  concentration of topical aminothiol alone conferring complete protection against radiodermatitis: ~1200 mM
[1]; vehicle 0:95:5 ethanol:PG:water
  dose required for complete protection (100% Clear Skin) against radiodermatitis: ~24 mg/cm skin
[1]; vehicle 50:30:20 ethanol:PG:water
  applied dose conferring complete protection against radiation-induced dermatitis: 2.8 mg/cm^2 skin
[1]; vehicle 50:30:20 ethanol:PG:water, total applied volume 105 ul
  concentration conferring complete protection against radiation-induced dermatitis: 370 mM
[2]
  effect upon killing of tumor xenografts by systemic Cytoxan chemotherapy: no discernible effect
[3]; change of cell culture medium
  time to reversion to normal cell division after wash-out: ≤ 48 h
[3]; log-phase human fibroblast cultures
  cell cycle block (phase): in the G1 phase of the cell cycle; also recorded: G1-specific cell cycle block; also recorded: reversible G1 cell cycle block
[3]; upon washout or removal of the drug
  reversibility of cell cycle block: reversible
